Data taken from publication PMC10096035, “Switching from Aromatase Inhibitors to Dual Targeting Flavonoid-Based Compounds for Breast Cancer Treatment” (Molecules, 2023).

What was measured:
[1] = target: T1, ERα (Estrogen Receptor α) (Homo sapiens, UniProt P03372); assay: fluorescence polarization competition (PolarScreen); conditions: read-out: ERα Binding IC50 μM ^1
T1 construct: gene ESR1; purified ERα supplied with the PolarScreen kit (Invitrogen); construct not described
T1 sequence (P03372 1-595): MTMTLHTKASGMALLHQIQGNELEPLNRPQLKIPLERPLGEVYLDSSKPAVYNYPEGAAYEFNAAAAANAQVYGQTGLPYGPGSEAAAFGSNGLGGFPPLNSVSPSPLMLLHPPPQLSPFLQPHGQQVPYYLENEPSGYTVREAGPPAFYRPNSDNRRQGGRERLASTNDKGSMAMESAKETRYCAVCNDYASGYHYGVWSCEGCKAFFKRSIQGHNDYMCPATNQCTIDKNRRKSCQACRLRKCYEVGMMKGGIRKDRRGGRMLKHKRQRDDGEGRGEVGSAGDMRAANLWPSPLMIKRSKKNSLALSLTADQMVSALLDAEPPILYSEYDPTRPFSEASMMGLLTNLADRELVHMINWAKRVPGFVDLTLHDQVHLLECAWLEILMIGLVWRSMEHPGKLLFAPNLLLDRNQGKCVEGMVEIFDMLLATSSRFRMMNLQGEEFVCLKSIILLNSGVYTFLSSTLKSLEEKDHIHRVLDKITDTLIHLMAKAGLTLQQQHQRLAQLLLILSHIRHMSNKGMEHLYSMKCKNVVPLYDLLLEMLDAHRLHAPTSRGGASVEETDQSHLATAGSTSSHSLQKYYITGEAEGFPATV
Text: fluorescence polarization competition (PolarScreen) on ERα (Estrogen Receptor α)

aromatase (AR; CYP19A) = target: T2, aromatase (AR; CYP19A) (Homo sapiens, UniProt P11511); assay: fluorometric aromatase inhibition kit; assay type: biochemical; conditions: read-out: AR Inhibition IC50 μM ^1
T2 construct: gene CYP19A1; construct not described
T2 sequence (P11511 1-503): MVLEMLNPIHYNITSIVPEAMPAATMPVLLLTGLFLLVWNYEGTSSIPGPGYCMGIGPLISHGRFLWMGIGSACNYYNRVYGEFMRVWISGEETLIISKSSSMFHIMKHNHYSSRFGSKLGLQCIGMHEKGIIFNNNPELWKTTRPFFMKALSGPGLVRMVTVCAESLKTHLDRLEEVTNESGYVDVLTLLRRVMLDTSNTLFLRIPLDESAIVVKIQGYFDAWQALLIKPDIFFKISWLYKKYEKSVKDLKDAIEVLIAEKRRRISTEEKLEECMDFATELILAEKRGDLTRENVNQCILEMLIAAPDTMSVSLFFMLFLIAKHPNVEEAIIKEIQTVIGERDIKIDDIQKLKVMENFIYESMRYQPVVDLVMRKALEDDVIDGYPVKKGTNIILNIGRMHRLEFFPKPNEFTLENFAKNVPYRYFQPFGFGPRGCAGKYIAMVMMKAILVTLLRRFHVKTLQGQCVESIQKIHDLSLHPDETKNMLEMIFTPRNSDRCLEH
Text: fluorometric aromatase inhibition kit on aromatase (AR; CYP19A)

| Structure (SMILES) | IC50 [1] | IC50 (aromatase (AR; CYP19A)) |
| --- | --- | --- |
| N#Cc1ccc(C(c2ccc(C#N)cc2)n2cncn2)cc1 [Letrozole] | > 10 µM |  |
| O=c1c(Cn2ccnc2)c(-c2ccc([N+](=O)[O-])cc2)oc2ccccc12 [1a] | > 10 µM |  |
| O=c1c(Cn2ccnc2)c(-c2ccccc2)oc2cc(O)ccc12 [2b, 3-((1H-imidazol-1-yl)methyl)-7-hydroxy-2-phenyl-4H-chromen-4-one] | > 10 µM | 4 µM |
| O=c1c(Cn2ccnc2)c(-c2ccc([N+](=O)[O-])cc2)oc2cc(O)ccc12 [2a, 3-((1H-imidazol-1-yl)methyl)-7-hydroxy-2-(4-nitrophenyl)-4H-chromen-4-one] | > 10 µM | 2.1 µM |
| O=c1c(Cn2ccnc2)c(-c2ccccc2)oc2ccccc12 [1b] | > 10 µM |  |
| CC/C(=C(\c1ccc(O)cc1)c1ccc(OCCNC)cc1)c1ccccc1 [Endoxifen] | 0.043 µM | > 10 µM |

Now from value to compound:

| IC50 [1] | IC50 (aromatase (AR; CYP19A)) | Structure (SMILES) |
| --- | --- | --- |
| 0.31 µM | 0.5 µM | O=c1c(C(c2ccccc2)n2ccnc2)coc2ccccc12 (racemic) [3b, 3-((1H-imidazol-1-yl)(phenyl)methyl)-4H-chromen-4-one] |
| > 10 µM |  | O=c1c(C(c2ccc([N+](=O)[O-])cc2)n2ccnc2)coc2ccccc12 (racemic) [3a] |
| 0.595 µM | 0.122 µM | O=c1c(C(c2ccc([N+](=O)[O-])cc2)n2ccnc2)coc2cc(O)ccc12 (racemic) [4a, 3-((1H-imidazol-1-yl)(4-nitrophenyl)methyl)-7-hydroxy-4H-chromen-4-one] |
| 0.203 µM | 2.2 µM | O=c1c(C(c2ccccc2)n2ccnc2)coc2cc(O)ccc12 (racemic) [4b, 3-((1H-imidazol-1-yl)(phenyl)methyl)-7-hydroxy-4H-chromen-4-one] |
